Assay results published in patent US20200325518A1, “Systems and Methods for Metabolic Assessment Utilizing 1-Methoxy-PMS Field” (priority 2019, published 2020).
≈ marks a conversion by molar mass, not a printed value. Read-outs that look alike come from different tables or passages of the source.

What was measured:
Type in all cases: cell-based
E. coli = test: CLSI overnight reference method MIC of antimicrobials against E. coli strains; details: for MIC (CLSI Ref): unit assumed
Bacteria = test: BacTiter-Glo luminescence after incubation of bacteria with or without resazurin; details: bacteria incubated 4 hours at 35° C. in presence of resazurin versus added after incubation
Experimental: Bacteria were inoculated into 96-well microplates comprise cation-adjusted Mueller Hinton broth in the presence and absence of resazurin (alamarBlue™) and incubated at 35° C. for 4 hours. For wells that were not incubated with resazurin, the growth indicator was added immediately after the 4-hour incubation. BacTiter-Glo® reagent (Promega, Madison, Wis.) was added to all wells and luminescence was measured. […] Thus, it can be advantageous to remove growth indicator from test wells during incubation.

P. aeruginosa = test: Rapid AST by surface binding of europium probe with time resolved fluorescence; details: Pseudomonas aeruginosa
Experimental: The x-axis of each graph denotes the concentrations of antimicrobial Amikacin (AMK) in micrograms/milliliter, and the y-axis denotes fluorescence from binding to bacteria surface. Growth check data measured by optical density (Absorbance at 600 nm) of the bacterial culture is denoted for each strain.
AST was performed by surface binding of probe followed by time resolved fluorescence. The P aeruginosa strains were incubated at 35° C. in shaking conditions for 4 hours for attaining growth, and growth check was performed by measuring absorbance of the culture at 600 nm after 4 hours of growth.

[1] = E. coli strain Clinical Sample 1
[2] = E. coli strain Clinical Sample 2
[3] = E. coli strain Clinical Sample 4
[4] = E. coli strain Clinical Sample 5
[5] = E. coli strain Clinical Sample 6
[6] = E. coli strain Clinical Sample 7
[7] = E. coli strain Clinical Sample 8
[8] = E. coli strain Clinical Sample 9
[9] = E. coli strain Clinical Sample 10
[10] = E. coli strain Clinical Sample 11
[11] = E. coli strain Clinical Sample 12
[12] = E. coli strain Clinical Sample 13

Molecule	MIC (CLSI Ref) (E. coli; E. coli strain BEI 4.097) [µg/mL]	MIC (CLSI Ref) (E. coli; E. coli strain CDC Carba36) [µg/mL]	MIC (CLSI Ref) (E. coli; [1]) [µg/mL]	MIC (CLSI Ref) (E. coli; [2]) [µg/mL]	MIC (CLSI Ref) (E. coli; [3]) [µg/mL]	MIC (CLSI Ref) (E. coli; [4]) [µg/mL]	MIC (CLSI Ref) (E. coli; [5]) [µg/mL]	MIC (CLSI Ref) (E. coli; [6]) [µg/mL]	MIC (CLSI Ref) (E. coli; [7]) [µg/mL]	MIC (CLSI Ref) (E. coli; [8]) [µg/mL]	MIC (CLSI Ref) (E. coli; [9]) [µg/mL]	MIC (CLSI Ref) (E. coli; [10]) [µg/mL]	MIC (CLSI Ref) (E. coli; [11]) [µg/mL]	MIC (CLSI Ref) (E. coli; [12]) [µg/mL]	luminescent signal upon addition of BacTiter-Glo (viable bacteria) (Bacteria)	CLSI breakpoint interpretation (E. coli; [2])	MIC (P. aeruginosa; P. aeruginosa Strain 1, growth check value 2.18, 4 hours growth, read-out: MIC) [µg/mL]	MIC (P. aeruginosa; P. aeruginosa Strain 2, growth checkpoint value 1.13, no reliable MIC data obtained, read-out: MIC expected) [µg/mL]
CC1(C)S[C@@H]2[C@H](NC(=O)[C@H](N)c3ccccc3)C(=O)N2[C@H]1C(=O)O [AMP, Ampicillin]	4	> 32	4	> 32	> 32	> 32	4	> 32	> 32	> 32	> 32	4	4	> 32	–	–	–	–
O=c1ccc2[n+]([O-])c3ccc(O)cc3oc-2c1 [resazurin, 7-hydroxy-10-oxidophenoxazin-10-ium-3-one]	–	–	–	–	–	–	–	–	–	–	–	–	–	–	less luminescent signal	–	–	–
CN(C)[C@@H]1C(=O)C(C(N)=O)=C(O)[C@@]2(O)C(=O)C3=C(O)c4c(O)cccc4[C@@](C)(O)[C@H]3C[C@@H]12 [TET, Tetracycline]	32	8	4	> 32	4	> 32	2	4	8	4	4	4	4	4	–	R	–	–
Ampicillin/sulbactam [SAM]	8	> 32	4	16	16	8	2	16	64	32	16	4	2	> 32	–	I	–	–
C[C@@H](O)[C@H]1C(=O)N2C(C(=O)O)=C(SCCN=CN)C[C@H]12 [IPM, Imipinem]	< 0.12	< 0.12	< 0.12	< 0.12	0.25	< 0.12	< 0.12	< 0.12	0.5	< 0.12	< 0.12	0.25	< 0.12	< 0.12	–	–	–	–
Colistin [CST]	0.12	0.25	0.12	0.12	0.25	0.25	0.12	0.12	0.12	0.5	0.25	0.5	0.25	0.25	–	–	–	–
CC(C)(O/N=C(\C(=O)N[C@@H]1C(=O)N2C(C(=O)[O-])=C(C[n+]3ccccc3)CS[C@H]12)c1csc(N)n1)C(=O)O [CAZ, Ceftazidime]	0.25	4	0.25	2	0.25	0.25	0.12	0.25	> 32	> 32	0.12	0.25	0.12	0.12	–	–	–	–
NCC[C@H](O)C(=O)N[C@@H]1C[C@H](N)[C@@H](O[C@H]2O[C@H](CN)[C@@H](O)[C@H](O)[C@H]2O)[C@H](O)[C@H]1O[C@H]1O[C@H](CO)[C@@H](O)[C@H](N)[C@H]1O [AMK, Amikacin]	4	4	4	4	4	4	4	2	4	4	8	4	4	4	–	–	8 (≈ 13.7 µM)	8 (≈ 13.7 µM)
C[C@H]1COc2c(N3CCN(C)CC3)c(F)cc3c(=O)c(C(=O)O)cn1c23 [LVX, Levofloxacin]	< 0.06	> 8	< 0.06	< 0.06	> 8	> 8	< 0.06	< 0.06	< 0.06	> 8	8	< 0.06	0.5	< 0.06	–	–	–	–
NC[C@H]1O[C@H](O[C@H]2[C@H](O)[C@@H](O[C@H]3O[C@H](CO)[C@@H](O)[C@H](N)[C@H]3O)[C@H](N)C[C@@H]2N)[C@H](N)C[C@@H]1O [TOB, Tobramycin]	1	1	2	1	1	1	1	1	2	4	16	1	1	1	–	–	–	–
CO/N=C(\C(=O)N[C@@H]1C(=O)N2C(C(=O)O)=C(CSc3nc(=O)c(=O)[nH]n3C)CS[C@H]12)c1csc(N)n1 [CRO, Ceftriaxone]	< 0.12	1	< 0.12	2	< 0.12	< 0.12	< 0.12	< 0.12	64	> 64	< 0.12	< 0.12	< 0.12	< 0.12	–	I	–	–
Piperacillin/tazobactam [TZP]	4	128	4	8	4	4	2	4	32	> 128	2	2	2	32	–	–	–	–
